Patent US11446287B2, “Compounds and methods for EP300 or CBP modulation and indications therefor” (Opna Immuno-Oncology SA, priority 2019, dated 2022)

What follows are molecules tested against T1, Recombinant human EP300 containing the bromodomain (EP300-BD (1040-1161)) (Homo sapiens, UniProt Q09472) (assay: EP300 Alphascreen binding assay).
T1 construct: Recombinant human EP300 bromodomain (EP300-BD (1040-1161)); made in house; host or cells: E. coli BL21-CodonPlus (DE3), modified pET vector
T1 sequence (Q09472 1040-1161): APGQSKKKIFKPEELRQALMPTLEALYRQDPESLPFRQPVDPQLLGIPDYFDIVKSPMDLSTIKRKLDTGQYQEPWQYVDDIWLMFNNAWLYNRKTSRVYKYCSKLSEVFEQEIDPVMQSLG
Summary of the method: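 Displacement of a biotinylated acetyl-K56 histone H3 peptide from the N-His bromodomain construct (1040-1161) measured by AlphaScreen proximity, beads at 7.5 μg/ml final, read 60 min after addition. Protein, peptide and compound first incubated 1 h at room temperature, pH 7.5 HEPES buffer; IC50 by four-parameter logistic fit.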

Structure (SMILES) | IC50
Cc1noc(C)c1-c1cnc2c(c1)c(-c1ccc(C(=O)O)cc1OCC(F)F)cn2C(C1CC1)C1CC1 [P-0338, 4-(1-(dicyclopropylmethyl)-5-(3,5-dimethylisoxazol-4-yl)-1H-pyrrolo[2,3-b]pyridin-3-yl)-3-(2,2-difluoroethoxy)benzoic acid] | 0.0001 to 1 µM
COc1cc(C(=O)O)ncc1-c1cn(C(C2CC2)C2CC2)c2ncc(-c3c(C)noc3C)cc12 [P-0339, 5-(1-(dicyclopropylmethyl)-5-(3,5-dimethylisoxazol-4-yl)-1H-pyrrolo[2,3-b]pyridin-3-yl)-4-methoxypicolinic acid] | 0.0001 to 1 µM
Cc1noc(C)c1-c1cnc2c(c1)c(-c1c(Cl)cc(C(=O)O)cc1OCC(F)F)cn2C(C1CC1)C1CC1 [P-0340, 3-chloro-4-(1-(dicyclopropylmethyl)-5-(3,5-dimethylisoxazol-4-yl)-1H-pyrrolo[2,3-b]pyridin-3-yl)-5-(2,2-difluoroethoxy)benzoic acid] | 0.0001 to 1 µM
Cc1noc(C)c1-c1cnc2c(c1)c(-c1ccc(C(=O)O)cc1OC1CCC1)cn2C1CCOCC1 [P-0341, 3-cyclobutoxy-4-(5-(3,5-dimethylisoxazol-4-yl)-1-(tetrahydro-2H-pyran-4-yl)-1H-pyrrolo[2,3-b]pyridin-3-yl)benzoic acid] | 0.0001 to 1 µM
Cc1noc(C)c1-c1cnc2c(c1)c(-c1ccc(C(=O)O)cc1OC(C)C)c(C)n2C(C1CC1)C1CC1 [P-0342, 4-(1-(dicyclopropylmethyl)-5-(3,5-dimethylisoxazol-4-yl)-2-methyl-1H-pyrrolo[2,3-b]pyridin-3-yl)-3-isopropoxybenzoic acid] | 0.0001 to 1 µM
Cc1noc(C)c1-c1cnc2c(c1)c(-c1ccc(C(=O)O)cc1OC(F)(F)F)c(C)n2C(C1CC1)C1CC1 [P-0343, 4-(1-(dicyclopropylmethyl)-5-(3,5-dimethylisoxazol-4-yl)-2-methyl-1H-pyrrolo[2,3-b]pyridin-3-yl)-3-(trifluoromethoxy)benzoic acid] | 0.0001 to 1 µM
Cc1noc(C)c1-c1ccc2c(c1)c(-c1ccc(C(=O)O)cc1OC(F)(F)F)cn2C(C1CC1)C1CC1 [P-0344, 4-(1-(dicyclopropylmethyl)-5-(3,5-dimethylisoxazol-4-yl)-1H-indol-3-yl)-3-(trifluoromethoxy)benzoic acid] | 0.0001 to 1 µM
Cc1noc(C)c1-c1cnc2c(c1)c(-c1ccc(C(=O)O)cc1OC(F)(F)F)c(C)n2-c1ncccc1C#N [P-0345, 4-(1-(3-cyanopyridin-2-yl)-5-(3,5-dimethylisoxazol-4-yl)-2-methyl-1H-pyrrolo[2,3-b]pyridin-3-yl)-3-(trifluoromethoxy)benzoic acid] | 0.0001 to 1 µM
Cc1noc(C)c1-c1cnc2c(c1)c(-c1c(Cl)cc(C(=O)O)cc1OC(F)(F)F)cn2[C@H]1CCOC1 [P-0346, (S)-3-chloro-4-(5-(3,5-dimethylisoxazol-4-yl)-1-(tetrahydrofuran-3-yl)-1H-pyrrolo[2,3-b]pyridin-3-yl)-5-(trifluoromethoxy)benzoic acid] | 0.0001 to 1 µM
Cc1noc(C)c1-c1cnc2c(c1)c(-c1ccc(C(=O)O)cc1OC1CCC1)cn2-c1cnc(N2CCC2)nc1 [P-0347, 4-(1-(2-(azetidin-1-yl)pyrimidin-5-yl)-5-(3,5-dimethylisoxazol-4-yl)-1H-pyrrolo[2,3-b]pyridin-3-yl)-3-cyclobutoxybenzoic acid] | 0.0001 to 1 µM
Cc1noc(C)c1-c1cnc2c(c1)c(-c1c(F)cc(C(=O)O)cc1OCC(F)F)cn2-c1cnc(N2CCC2)nc1 [P-0348, 4-(1-(2-(azetidin-1-yl)pyrimidin-5-yl)-5-(3,5-dimethylisoxazol-4-yl)-1H-pyrrolo[2,3-b]pyridin-3-yl)-3-(2,2-difluoroethoxy)-5-fluorobenzoic acid] | 0.0001 to 1 µM
Cc1nn(C(F)F)cc1-n1cc(-c2ccc(C(=O)O)cc2OCC(F)F)c2cc(-c3c(C)noc3C)cnc21 [P-0349, 3-(2,2-difluoroethoxy)-4-(1-(1-(difluoromethyl)-3-methyl-1H-pyrazol-4-yl)-5-(3,5-dimethylisoxazol-4-yl)-1H-pyrrolo[2,3-b]pyridin-3-yl)benzoic acid] | 0.0001 to 1 µM
